Data from ChEMBL document CHEMBL3885861, “Open TG-GATES”.

Organism: Rattus norvegicus
Assay: Open TG-GATES - Regimen: Single
Type: toxicity, organism-based, Sprague-Dawley
Set-up: regimen Single, gender Male, age 6 weeks
Details: in vivo, po, 1000 mg/kg, route gavage, dose level Middle; for APTT / Bas / Eos / Fbg / Hb / Ht / Lym / MCH / MCHC / MCV / Mono / Neu / PT / Plat / RBC / Ret / WBC: tissue Blood; for KIDNEY_L / KIDNEY_R / KIDNEY_TOTAL: tissue Kidney; for LIVER: tissue Liver; for A/G / ALP / ALT / AST / BUN / CRE / Ca / Cl / DBIL / GLC / IP / K / LDH / Na / PL / RALB / TBIL / TC / TG / TP / gamma-GTP: tissue Plasma

With CC(=O)[C@@]1(O)CC[C@H]2[C@@H]3C=C(Cl)C4=CC(=O)CC[C@]4(C)[C@H]3CC[C@@]21C [CHLORMADINONE] the TERMINAL_BW (3 h) was 226.2 g, the APTT (3 h) was 23.3 s and the Bas (3 h) was 0%. For the same molecule, the Eos (3 h) was 1%, the Fbg (3 h) was 302 mg/dL and the Hb (3 h) was 12.9 g/dL. For the same molecule, the Ht (3 h) was 40.2%, the Lym (3 h) was 75% and the MCH (3 h) was 21.2 pg. It also gave an MCHC (3 h) of 32.1%, an MCV (3 h) of 66.1 fL and a Mono (3 h) of 2.4%. The Neu (3 h) was 21.2%, the PT (3 h) was 15.8 s and the Plat (3 h) was 112.9 x10_4/uL. For the same molecule, the RBC (3 h) was 608.8 x10_4/ul, the Ret (3 h) was 9.1% and the WBC (3 h) was 72.4 x10_2/uL. For the same molecule, the KIDNEY_L (3 h) was 1 g, the KIDNEY_R (3 h) was 1.1 g and the KIDNEY_TOTAL (3 h) was 2.1 g. It also gave an LIVER (3 h) of 10.9 g, an A/G (3 h) of 1.3 and an ALP (3 h) of 1451.2 IU/L. The ALT (3 h) was 38.8 IU/L, the AST (3 h) was 74 IU/L and the BUN (3 h) was 13.8 mg/dL. For the same molecule, the CRE (3 h) was 0.1 mg/dL, the Ca (3 h) was 11.2 mg/dL and the Cl (3 h) was 104.6 meq/L. The DBIL (3 h) was 0 mg/dL, the GLC (3 h) was 176.4 mg/dL and the IP (3 h) was 8 mg/dL. The K (3 h) was 4.3 meq/L, the LDH (3 h) was 166.6 IU/L and the Na (3 h) was 141.6 meq/L. The PL (3 h) was 134.4 mg/dL, the RALB (3 h) was 3.1 g/dL and the TBIL (3 h) was 0.028 mg/dL. It also gave a TC (3 h) of 74.4 mg/dL, a TG (3 h) of 50 mg/dL and a TP (3 h) of 5.5 g/dL. It also gave a gamma-GTP (3 h) of 2 IU/L, a TERMINAL_BW (6 h) of 221.4 g and an APTT (6 h) of 23.3 s. For the same molecule, the Bas (6 h) was 0%, the Eos (6 h) was 0.2% and the Fbg (6 h) was 300.8 mg/dL. The Hb (6 h) was 13 g/dL, the Ht (6 h) was 40.1% and the Lym (6 h) was 72.2%. The MCH (6 h) was 19.8 pg, the MCHC (6 h) was 32.5% and the MCV (6 h) was 61.1 fL. For the same molecule, the Mono (6 h) was 1.6%, the Neu (6 h) was 25.2% and the PT (6 h) was 15.6 s. The Plat (6 h) was 119.2 x10_4/uL, the RBC (6 h) was 655.4 x10_4/ul and the Ret (6 h) was 8.1%. The WBC (6 h) was 56.2 x10_2/uL, the KIDNEY_L (6 h) was 1 g and the KIDNEY_R (6 h) was 1 g. For the same molecule, the KIDNEY_TOTAL (6 h) was 2 g, the LIVER (6 h) was 10.3 g and the A/G (6 h) was 1.2. For the same molecule, the ALP (6 h) was 1445.6 IU/L, the ALT (6 h) was 43 IU/L and the AST (6 h) was 73 IU/L. For the same molecule, the BUN (6 h) was 13 mg/dL, the CRE (6 h) was 0.2 mg/dL and the Ca (6 h) was 10.8 mg/dL. For the same molecule, the Cl (6 h) was 105.2 meq/L, the DBIL (6 h) was 0.002 mg/dL and the GLC (6 h) was 181.2 mg/dL. For the same molecule, the IP (6 h) was 10.2 mg/dL, the K (6 h) was 4.6 meq/L and the LDH (6 h) was 143.6 IU/L. It also gave a Na (6 h) of 140.4 meq/L, a PL (6 h) of 138.2 mg/dL and an RALB (6 h) of 3.1 g/dL. For the same molecule, the TBIL (6 h) was 0.04 mg/dL, the TC (6 h) was 81.6 mg/dL and the TG (6 h) was 27.6 mg/dL. For the same molecule, the TP (6 h) was 5.6 g/dL, the gamma-GTP (6 h) was 1.6 IU/L and the TERMINAL_BW (9 h) was 211.4 g. The APTT (9 h) was 23.8 s, the Bas (9 h) was 0% and the Eos (9 h) was 0.2%. For the same molecule, the Fbg (9 h) was 336.2 mg/dL, the Hb (9 h) was 13.3 g/dL and the Ht (9 h) was 41.7%. For the same molecule, the Lym (9 h) was 72.4%, the MCH (9 h) was 20 pg and the MCHC (9 h) was 32%. It also gave an MCV (9 h) of 62.5 fL, a Mono (9 h) of 1% and a Neu (9 h) of 25.6%. For the same molecule, the PT (9 h) was 15.4 s, the Plat (9 h) was 110.4 x10_4/uL and the RBC (9 h) was 667.4 x10_4/ul. For the same molecule, the Ret (9 h) was 7.4%, the WBC (9 h) was 39.5 x10_2/uL and the KIDNEY_L (9 h) was 1 g. It also gave a KIDNEY_R (9 h) of 1 g, a KIDNEY_TOTAL (9 h) of 1.9 g and an LIVER (9 h) of 10.5 g. It also gave an A/G (9 h) of 1.2, an ALP (9 h) of 1398.6 IU/L and an ALT (9 h) of 40.2 IU/L. The AST (9 h) was 74.6 IU/L, the BUN (9 h) was 13 mg/dL and the CRE (9 h) was 0.1 mg/dL. For the same molecule, the Ca (9 h) was 10.7 mg/dL, the Cl (9 h) was 106.2 meq/L and the DBIL (9 h) was 0.002 mg/dL. The GLC (9 h) was 188 mg/dL, the IP (9 h) was 9.1 mg/dL and the K (9 h) was 4.3 meq/L. It also gave an LDH (9 h) of 157.2 IU/L, a Na (9 h) of 141.2 meq/L and a PL (9 h) of 156.2 mg/dL. It also gave an RALB (9 h) of 3.2 g/dL, a TBIL (9 h) of 0.024 mg/dL and a TC (9 h) of 84.4 mg/dL. For the same molecule, the TG (9 h) was 81.2 mg/dL, the TP (9 h) was 5.7 g/dL and the gamma-GTP (9 h) was 1.2 IU/L. For the same molecule, the TERMINAL_BW (24 h) was 231.1 g, the APTT (24 h) was 24.4 s and the Bas (24 h) was 0%. For the same molecule, the Eos (24 h) was 1%, the Fbg (24 h) was 333.6 mg/dL and the Hb (24 h) was 13.2 g/dL. The Ht (24 h) was 40.6%, the Lym (24 h) was 77.8% and the MCH (24 h) was 20.5 pg. It also gave an MCHC (24 h) of 32.6%, an MCV (24 h) of 63 fL and a Mono (24 h) of 2.2%. The Neu (24 h) was 18.6%, the PT (24 h) was 15.5 s and the Plat (24 h) was 125.6 x10_4/uL. For the same molecule, the RBC (24 h) was 644.6 x10_4/ul, the Ret (24 h) was 7.9% and the WBC (24 h) was 130.2 x10_2/uL. For the same molecule, the KIDNEY_L (24 h) was 1 g, the KIDNEY_R (24 h) was 1.1 g and the KIDNEY_TOTAL (24 h) was 2.1 g. For the same molecule, the LIVER (24 h) was 12.1 g, the A/G (24 h) was 1.2 and the ALP (24 h) was 1702.6 IU/L. The ALT (24 h) was 45.8 IU/L, the AST (24 h) was 70.8 IU/L and the BUN (24 h) was 17.8 mg/dL. It also gave a CRE (24 h) of 0.2 mg/dL, a Ca (24 h) of 11.1 mg/dL and a Cl (24 h) of 105.8 meq/L. It also gave a DBIL (24 h) of 0 mg/dL, a GLC (24 h) of 193.4 mg/dL and an IP (24 h) of 7.8 mg/dL. For the same molecule, the K (24 h) was 4.5 meq/L, the LDH (24 h) was 184.2 IU/L and the Na (24 h) was 140.8 meq/L. For the same molecule, the PL (24 h) was 168 mg/dL, the RALB (24 h) was 3.3 g/dL and the TBIL (24 h) was 0 mg/dL. It also gave a TC (24 h) of 77.2 mg/dL, a TG (24 h) of 188.8 mg/dL and a TP (24 h) of 5.9 g/dL. For the same molecule, the gamma-GTP (24 h) was 1.6 IU/L.
